# Measurements: patent publication US6455077B2, “Herbal composition and method of manufacturing such composition for the management of gynecological disorders” (Dabur Research Foundation, priority 2001, dated 2002)
# Tested on: rat isolated uterus
# Assay: Uterotonic (oxytocic) activity on isolated uterus of stilbestrol-primed rats, compared with 5-HT
# Parameters: species or system Wistar female albino rats
# Details: isolated uterus horn of stilbestrol dipropionate (1 mg/kg i.p., 24 h) pre-treated rats, de Jalon's solution
# Description: The above two samples were assayed for their effect on Uterotonic activity using Wistar female albino rats.
# The uterotonic property of the test extracts were assessed in two test areas.
# 1. The oxytocic activity of the Sample A and Sample B is compared with uterine stimulant 5-HT.
# Female rats weighing between 150-200 g were pre-treated with stilbestrol dipropionate, 1 mg/kg intra peritoneally 24 h prior to the experiment. The rats were killed by a swift blow on the head and exsanguinated. The uterus of rat dissected and the two horns divided. One horn is suspended in the bath. The rhythmic contractions are abolished by using de jalon's solution. When the spontaneous contractions became regular, the responses to Extracts of Sample A and Sample B and other agonists were recorded using a Frontal lever, isometrically connected to a polygraph.
structure (smiles),measurement,value
"CN1CC(=O)N=C1N.NCCc1c[nH]c2ccc(O)cc12.O=S(=O)(O)O [Formulation 5-HT, 5-hydroxytryptamine creatinine sulphate]",In-vitro treatment (uterine contraction),1. The control drug 5-HT induced a dose related increase in the height of contraction of rat isolated uterus. and Uterine contraction
